Patent US8952024B2, “Herbicidal pyrimidone derivatives” (E I du Pont de Nemours and Company, priority 2009, dated 2015)
Read-outs that look alike come from different tables or passages of the source.

Key:
Format in all cases: in vivo
[1] = tested on: blackgrass (Alopecurus myosuroides); test: Test B pre-/postemergence plant response; conditions: for pest or weed control at 16 g/ha: 16 g ai/ha; for pest or weed control at 16 g/ha / pest or weed control at 31 g/ha / pest or weed control at 62 g/ha: read-out: Plant response rating, Blackgrass; for pest or weed control at 31 g/ha: 31 g ai/ha; for pest or weed control at 62 g/ha: 62 g ai/ha
From the text: (§1) Seeds of plant species selected from blackgrass (Alopecurus myosuroides), downy bromegrass (Bromus tectorum), green foxtail (Setaria viridis), Italian ryegrass (Lolium multiflorum), wheat (Triticum aestivum), wild oat (Avena fatua), deadnettle (henbit deadnettle, Lamium amplexicaule), galium (catchweed bedstraw, Galium aparine), bermudagrass (Cynodon dactylon), Surinam grass (Brachiaria decumbens), cocklebur (Xanthium strumarium), corn (Zea mays), large crabgrass (Digitaria sanguinalis), woolly cupgrass (Eriochloa villosa), giant foxtail (Setaria faberii), goosegrass (Eleusine indica), johnsongrass (Sorghum halepense), kochia (Kochia scoparia), lambsquarters (Chenopodium album), morningglory (Ipomoea coccinea), nightshade (eastern black nightshade, Solanum ptycanthum), yellow nutsedge (Cyperus esculentus), pigweed (Amaranthus retroflexus), ragweed (common ragweed, Ambrosia elatior), Russian thistle (Salsola kali), soybean (Glycine max), sunflower (common oilseed sunflower, Helianthus annuus) and velvetleaf (Abutilon theophrasti) were planted into a blend of loam soil and sand and treated preemergence with test compounds formulated in a non-phytotoxic solvent mixture which included a surfactant.
(§2) At the same time, plants selected from these crop and weed species and also winter barley (Hordeum vulgare), canarygrass (Phalaris minor), chickweed (Stellaria media) and windgrass (Apera spica-venti) were planted in pots containing Redi-Earth® planting medium (Scotts Company, 14111 Scottslawn Road, Marysville, Ohio 43041) comprising spaghnum peat moss, vermiculite, wetting agent and starter nutrients and treated with postemergence applications of some of the test chemicals formulated in the same manner. Plants ranged in height from 2 to 18 cm (1- to 4-leaf stage) for postemergence treatments.
(§3) Treated plants and controls were maintained in a greenhouse for 13 to 15 days, after which time all treated plants were visually evaluated and compared to controls. Plant response ratings, summarized in Table B, are based on a scale of 0 to 100 where 0 is no effect and 100 is complete control. A dash (-) response means no test result.

[2] = tested on: wheat (Triticum aestivum); test: Test B pre-/postemergence plant response; conditions: for plant injury at 31 g/ha: 31 g ai/ha; for plant injury at 62 g/ha: 62 g ai/ha
From the text: as §1, §2, §3

[3] = tested on: ragweed (common ragweed, Ambrosia elatior); test: Test B pre-/postemergence plant response; conditions: for pest or weed control at 31 g/ha: 31 g ai/ha; for pest or weed control at 62 g/ha: 62 g ai/ha
From the text: as §1, §2, §3

[4] = tested on: morningglory (Ipomoea coccinea); test: Test B pre-/postemergence plant response; conditions: for pest or weed control at 16 g/ha: 16 g ai/ha; for pest or weed control at 16 g/ha / pest or weed control at 31 g/ha / pest or weed control at 62 g/ha: read-out: Plant response rating, Morningglory; for pest or weed control at 31 g/ha: 31 g ai/ha; for pest or weed control at 62 g/ha: 62 g ai/ha
From the text: as §1, §2, §3

[5] = tested on: velvetleaf (Abutilon theophrasti); test: Test B pre-/postemergence plant response; conditions: for pest or weed control at 31 g/ha: 31 g ai/ha; for pest or weed control at 31 g/ha / pest or weed control at 62 g/ha: read-out: Plant response rating, Velvetleaf; for pest or weed control at 62 g/ha: 62 g ai/ha
From the text: as §1, §2, §3

[6] = tested on: Italian ryegrass (Lolium multiflorum); test: Test B pre-/postemergence plant response; conditions: for pest or weed control at 31 g/ha: 31 g ai/ha; for pest or weed control at 62 g/ha: 62 g ai/ha
From the text: as §1, §2, §3

[7] = tested on: johnsongrass (Sorghum halepense); test: Test B pre-/postemergence plant response; conditions: for pest or weed control at 16 g/ha: 16 g ai/ha; for pest or weed control at 16 g/ha / pest or weed control at 31 g/ha / pest or weed control at 62 g/ha: read-out: Plant response rating, Johnsongrass; for pest or weed control at 31 g/ha: 31 g ai/ha; for pest or weed control at 62 g/ha: 62 g ai/ha
From the text: as §1, §2, §3

[8] = tested on: chickweed (Stellaria media); test: Test B postemergence plant response; conditions: Stellaria media, post-emergence, 360 h, Postemergence
How it was run: (§4)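 Plants grown in peat/vermiculite medium were sprayed postemergence at 2–18 cm height (1- to 4-leaf stage). After 13–15 days in the greenhouse, response was rated visually against untreated controls on a 0–100 scale (0 no effect, 100 complete control).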

[9] = tested on: canarygrass (Phalaris minor); test: Test B postemergence plant response; conditions: Phalaris minor, post-emergence, 360 h, Postemergence
How it was run: as §4

[10] = tested on: winter barley (Hordeum vulgare); test: Test B postemergence plant response; conditions: Hordeum vulgare, post-emergence, Postemergence, read-out: Plant response rating, Barley
How it was run: as §4

[11] = Alopecurus myosuroides, pre-emergence, 360 h, Preemergence, scale 0 to 100 (0 no effect, 100 complete control)
[12] = Preemergence, 125 g ai/ha, 0 to 100 scale
[13] = Triticum aestivum, pre-emergence, Preemergence, scale 0 to 100 (0 no effect, 100 complete control), read-out: Plant response rating, Wheat
[14] = Ambrosia artemisiifolia, pre-emergence, 360 h, Preemergence, scale 0 to 100 (0 no effect, 100 complete control), read-out: Plant response rating, Ragweed
[15] = Ipomoea, pre-emergence, Preemergence, scale 0 to 100 (0 no effect, 100 complete control)
[16] = Abutilon theophrasti, pre-emergence, 360 h, Preemergence, scale 0 to 100 (0 no effect, 100 complete control)
[17] = Lolium multiflorum, pre-emergence, Preemergence, scale 0 to 100 (0 no effect, 100 complete control), read-out: Plant response rating, Ryegrass, Italian
[18] = Sorghum halepense, pre-emergence, Preemergence, scale 0 to 100 (0 no effect, 100 complete control)
[19] = 125 g ai/ha, visual rating after 13 to 15 days, scale 0 (no effect) to 100 (complete control)

## O=C1CCCC(O)=C1C(=O)c1cnc(-c2ccccc2)n(-c2ccccc2)c1=O [Compound 2, 5-[(2-hydroxy-6-oxo-1-cyclohexen-1-yl)carbonyl]-2,3-diphenyl-4(3H)-pyrimidinone]
[1]; Alopecurus myosuroides, post-emergence, 360 h, Postemergence, 0 to 100 scale
  pest or weed control at 16 g/ha: 0%
[1]; Alopecurus myosuroides, post-emergence, 360 h, Postemergence, scale 0 to 100 (0 no effect, 100 complete control)
  pest or weed control at 31 g/ha: 10%
[1]; Alopecurus myosuroides, post-emergence, 360 h, Postemergence, scale 0 (no effect) to 100 (complete control), 13 to 15 days
  pest or weed control at 62 g/ha: 30%
[1]; Alopecurus myosuroides, post-emergence, 360 h, Postemergence, 125 g ai/ha, visual rating after 13 to 15 days, scale 0 (no effect) to 100 (complete control)
  pest or weed control at 125 g/ha: 45%
[1]; [11]
  pest or weed control at 16 g/ha: 0%
  pest or weed control at 31 g/ha: 0%
[1]; Alopecurus myosuroides, pre-emergence, 360 h, Preemergence, scale 0 to 100, 0 no effect, 100 complete control
  pest or weed control at 62 g/ha: 0%
[1]; [12]
  Blackgrass plant response rating: 50
[2]; [12]
  Wheat plant response rating: 0
[2]; Triticum aestivum, post-emergence, 16 g ai/ha, Postemergence, 0 to 100 scale, read-out: Plant response rating, Wheat
  plant injury at 16 g/ha: 0%
[2]; Triticum aestivum, post-emergence, Postemergence, scale 0 to 100 (0 no effect, 100 complete control), read-out: Plant response rating, Wheat
  plant injury at 31 g/ha: 5%
[2]; Triticum aestivum, post-emergence, Postemergence, scale 0 (no effect) to 100 (complete control), 13 to 15 days, read-out: Plant response rating, Wheat
  plant injury at 62 g/ha: 10%
[2]; Triticum aestivum, post-emergence, Postemergence, 125 g ai/ha, visual rating after 13 to 15 days, scale 0 (no effect) to 100 (complete control)
  plant injury at 125 g/ha: 20%
[2]; [13]
  plant injury at 31 g/ha: 0%
  plant injury at 62 g/ha: 0%
[3]; Ambrosia artemisiifolia, post-emergence, 360 h, 16 g ai/ha, Postemergence, 0 to 100 scale, read-out: Plant response rating, Ragweed
  pest or weed control at 16 g/ha: 65%
[3]; Ambrosia artemisiifolia, post-emergence, 360 h, Postemergence, scale 0 to 100 (0 no effect, 100 complete control), read-out: Plant response rating, Ragweed
  pest or weed control at 31 g/ha: 70%
[3]; Ambrosia artemisiifolia, post-emergence, 360 h, Postemergence, scale 0 (no effect) to 100 (complete control), 13 to 15 days, read-out: Plant response rating, Ragweed
  pest or weed control at 62 g/ha: 80%
[3]; Ambrosia artemisiifolia, post-emergence, 360 h, Postemergence, 125 g ai/ha, visual rating after 13 to 15 days, scale 0 (no effect) to 100 (complete control)
  pest or weed control at 125 g/ha: 90%
[3]; [14]
  pest or weed control at 31 g/ha: 60%
  pest or weed control at 62 g/ha: 85%
[3]; [12]
  Ragweed plant response rating: 98
[4]; Ipomoea, post-emergence, Postemergence, 0 to 100 scale
  pest or weed control at 16 g/ha: 55%
[4]; Ipomoea, post-emergence, Postemergence, scale 0 to 100 (0 no effect, 100 complete control)
  pest or weed control at 31 g/ha: 70%
[4]; Ipomoea, post-emergence, Postemergence, scale 0 (no effect) to 100 (complete control), 13 to 15 days
  pest or weed control at 62 g/ha: 80%
[4]; Ipomoea, post-emergence, Postemergence, 125 g ai/ha, visual rating after 13 to 15 days, scale 0 (no effect) to 100 (complete control)
  pest or weed control at 125 g/ha: 95%
[4]; [15]
  pest or weed control at 16 g/ha: 0%
  pest or weed control at 31 g/ha: 0%
[4]; Ipomoea, pre-emergence, Preemergence, scale 0 to 100, 0 no effect, 100 complete control
  pest or weed control at 62 g/ha: 20%
[4]; [12]
  Morningglory plant response rating: 75
[5]; Abutilon theophrasti, post-emergence, 360 h, Postemergence, scale 0 to 100 (0 no effect, 100 complete control)
  pest or weed control at 31 g/ha: 85%
[5]; Abutilon theophrasti, post-emergence, 360 h, Postemergence, scale 0 (no effect) to 100 (complete control), 13 to 15 days
  pest or weed control at 62 g/ha: 85%
[5]; Abutilon theophrasti, post-emergence, 360 h, Postemergence, 125 g ai/ha, visual rating after 13 to 15 days, scale 0 (no effect) to 100 (complete control)
  pest or weed control at 125 g/ha: 90%
[5]; [16]
  pest or weed control at 31 g/ha: 75%
  pest or weed control at 62 g/ha: 90%
[5]; [12]
  Velvetleaf plant response rating: 100
[6]; Lolium multiflorum, post-emergence, 16 g ai/ha, Postemergence, 0 to 100 scale, read-out: Plant response rating, Ryegrass, Italian
  pest or weed control at 16 g/ha: 0%
[6]; Lolium multiflorum, post-emergence, Postemergence, scale 0 to 100 (0 no effect, 100 complete control), read-out: Plant response rating, Ryegrass, Italian
  pest or weed control at 31 g/ha: 0%
[6]; Lolium multiflorum, post-emergence, Postemergence, scale 0 (no effect) to 100 (complete control), 13 to 15 days, read-out: Plant response rating, Ryegrass, Italian
  pest or weed control at 62 g/ha: 40%
[6]; Lolium multiflorum, post-emergence, Postemergence, 125 g ai/ha, visual rating after 13 to 15 days, scale 0 (no effect) to 100 (complete control)
  pest or weed control at 125 g/ha: 40%
[6]; [17]
  pest or weed control at 31 g/ha: 0%
  pest or weed control at 62 g/ha: 0%
[6]; [12]
  Ryegrass, Italian plant response rating: 5
[7]; [12]
  Johnsongrass plant response rating: 80
[7]; Sorghum halepense, post-emergence, Postemergence, 0 to 100 scale
  pest or weed control at 16 g/ha: 75%
[7]; Sorghum halepense, post-emergence, Postemergence, scale 0 to 100 (0 no effect, 100 complete control)
  pest or weed control at 31 g/ha: 85%
[7]; Sorghum halepense, post-emergence, Postemergence, scale 0 (no effect) to 100 (complete control), 13 to 15 days
  pest or weed control at 62 g/ha: 90%
[7]; Sorghum halepense, post-emergence, Postemergence, 125 g ai/ha, visual rating after 13 to 15 days, scale 0 (no effect) to 100 (complete control)
  pest or weed control at 125 g/ha: 98%
[7]; [18]
  pest or weed control at 16 g/ha: 0%
  pest or weed control at 31 g/ha: 60%
[7]; Sorghum halepense, pre-emergence, Preemergence, scale 0 to 100, 0 no effect, 100 complete control
  pest or weed control at 62 g/ha: 65%
[8]; 16 g ai/ha, 0 to 100 scale, read-out: Plant response rating, Chickweed
  pest or weed control at 16 g/ha: 70%
[8]; 31 g ai/ha, scale 0 to 100 (0 no effect, 100 complete control), read-out: Plant response rating, Chickweed
  pest or weed control at 31 g/ha: 75%
[8]; 62 g ai/ha, scale 0 (no effect) to 100 (complete control), 13 to 15 days, read-out: Plant response rating, Chickweed
  pest or weed control at 62 g/ha: 90%
[8]; [19]
  pest or weed control at 125 g/ha: 95%
[9]; 16 g ai/ha, 0 to 100 scale, read-out: Plant response rating, Canarygrass
  pest or weed control at 16 g/ha: 20%
[9]; 31 g ai/ha, scale 0 to 100 (0 no effect, 100 complete control), read-out: Plant response rating, Canarygrass
  pest or weed control at 31 g/ha: 40%
[9]; 62 g ai/ha, scale 0 (no effect) to 100 (complete control), 13 to 15 days, read-out: Plant response rating, Canarygrass
  pest or weed control at 62 g/ha: 50%
[9]; [19]
  pest or weed control at 125 g/ha: 80%
[10]; 16 g ai/ha, 0 to 100 scale
  plant injury at 16 g/ha: 0%
[10]; 31 g ai/ha, scale 0 to 100 (0 no effect, 100 complete control)
  plant injury at 31 g/ha: 10%
[10]; 62 g ai/ha, scale 0 (no effect) to 100 (complete control), 13 to 15 days
  plant injury at 62 g/ha: 20%
[10]; 125 g ai/ha, scale 0 to 100 (0 no effect, 100 complete control), 13 to 15 days
  plant injury at 125 g/ha: 30%
